Source: patent US8314092B2, “Substituted [(5H-pyrrolo[2,1-c][1,4]benzodiazepin-11-yl)piperazin-1-yl]-2,2-dimethylpropanoic acid compounds as dual activity H1 inverse agonists/5-HT2A antagonists” (Eli Lilly and Company, priority 2011, dated 2012)
Structures can show the parent of a compound that is named as a salt.

Key:
Dopamine D3 = Dopamine D3 (Homo sapiens, UniProt P35462); experiment: Dopamine D3 binding
Source text: Further, the compounds of the invention may be tested in binding assays and functional activity assays by well known methods for other physiologically important receptors such as, but not limited to, the hERG channel, other serotonin receptors (specifically 5-HT1A, 5-HT1B, 5-HT1D, 5-HT1E, 5-HT1F receptors, lack of agonist activity at 5-HT2B receptors, 5-HT2C, 5-HT4, 5-HTS, 5-HT6, and 5-HT7 receptors), muscarinic receptors, dopaminergic receptors (specifically D1, D2, and D3), GABAA receptors, adrenergic receptors and monoamine transporters. Certain exemplified compounds are tested at these receptors and are shown to lack significant activity.

Wistar rats = experiment: Sleep and behavioral monitoring in rats (EEG, EMG, motion); format: in vivo; conditions: rat; for Rebound Insomnia, Adj. Mean: NREM + REM sleep in 7th-9th hours post-treatment; for Rebound Insomnia, Adj. Mean / REM inhibition, Adj. Mean / Cumulative NREM sleep, Adj. Mean / Cumulative Total sleep, Adj. Mean / Locomotor Activity Intensity, Adj. Mean: difference from vehicle; for REM inhibition, Adj. Mean: REM sleep in first 12 hours post-treatment; for Cumulative NREM sleep, Adj. Mean / Cumulative Total sleep, Adj. Mean / Locomotor Activity Intensity, Adj. Mean / Average Sleep Bout, Adj. Mean / Longest Sleep Bout, Adj. Mean: first 6 hours post-treatment; for Average Sleep Bout, Adj. Mean / Longest Sleep Bout, Adj. Mean: n-fold increase over vehicle controls
Procedure: Sleep and behavioral monitoring in rats: Representative compounds of the present invention are tested in rats for their ability to increase the amount of sleep or decrease sleep interruption or both without undesired effects such as inhibition of REM sleep, waking motor impairment, and/or rebound insomnia. Test animals are continuously monitored by electro-encephalograms (EEG), electromyograms (EMG), and motion to measure cumulative nonREM sleep, cumulative total sleep, average sleep bout duration, longest sleep bout duration, rebound insomnia, REM sleep inhibition and locomotor activity intensity during wakefulness. Methods for such studies are known in the art (see for example methods described in Edgar D M, Seidel W F. Modafinil induces wakefulness without intensifying motor activity or subsequent rebound hypersomnolence in the rat. J Pharmacology & Experimental Therapeutics 1997; 283: 757-769; van Gelder R N, Edgar D M, Dement W C. Real-time automated sleep scoring: validation of a microcomputer-based system for mice. Sleep 1991, 14: 48-55; and Gross B A, Walsh C M, Turakhia A A, Booth V, Mashour G A, Poe G R. Open-source logic-based automated sleep scoring software using electrophysiological recordings in rats. J Neurosci Methods. 2009; 184(1):10-8.) Studies are conducted as follows: Animal preparation. Adult, male Wistar rats (approximately 270-300 g at time of surgery) are surgically fitted for chronic recording of EEG, EMG, and motion as follows: Rats are surgically prepared with a cranial implant consisting of four stainless steel screws for EEG recording (two frontal [3.9 mm anterior from bregma, and ±2.0 mm mediolaterally] and two occipital [6.4 mm posterior from bregma, ±5.5 mm mediolaterally]), and with two Teflon-coated stainless steel wires for EMG recording (positioned under the nuchal trapezoid muscles). All leads are soldered to a miniature connector (Microtech, Boothwyn, Pa.) prior to surgery. The implant assembly is affixed to the skull by the combination of the stainless steel EEG recording screws, cyanoacrylate applied between the implant connector and skull, and dental acrylic. Locomotor activity is monitored via a miniature transmitter (Minimitter PDT4000G, Philips Respironics, Bend, Oreg.) surgically placed into the abdomen. At least 3 weeks are allowed for recovery. Recording environment. Each rat is housed individually within a microisolator cage modified with an inserted polycarbonate filter-top riser to allow more vertical headroom. A flexible cable that minimally restricts movement is connected at one end to a commutator affixed to the cage top and at the other end to the animal's cranial implant. Each cage is located within separate, ventilated compartments of a stainless steel sleep-wake recording chamber. Food and water are available ad libitum and the ambient temperature is maintained at about 23±1° C. A 24-hr. light-dark cycle (LD 12:12) using fluorescent light is maintained throughout the study. Relative humidity averages approximately 50%. Animals are undisturbed for at least 30 hrs before and after each treatment. Study design and dosing. The vehicle (placebo, methylcellulose 15 centipoise 0.25% in water) or one of the test compound dose levels is administered orally at 1 mL/kg pseudo-randomly such that no rat receives the same treatment twice, and no rat receives more than two of the 8 treatments in any one study. Each rat is removed from its cage for about a minute to be weighed and treated. At least 6 days “washout” period precede and follow each treatment. Data collection. […]

[1] = molecular target: human recombinant H1 receptor (Homo sapiens, UniProt P35367); experiment: H1 inverse agonism (IP1 accumulation in HEK293/hm H1 cells); format: cell-based; set-up: expressed in transfected cells; host or cells: HEK293 (HEK293/hm H1 clone R-40)
[2] = PO, 6 hour period after treatment

human recombinant H1 receptor, sequence (P35367 whole entry): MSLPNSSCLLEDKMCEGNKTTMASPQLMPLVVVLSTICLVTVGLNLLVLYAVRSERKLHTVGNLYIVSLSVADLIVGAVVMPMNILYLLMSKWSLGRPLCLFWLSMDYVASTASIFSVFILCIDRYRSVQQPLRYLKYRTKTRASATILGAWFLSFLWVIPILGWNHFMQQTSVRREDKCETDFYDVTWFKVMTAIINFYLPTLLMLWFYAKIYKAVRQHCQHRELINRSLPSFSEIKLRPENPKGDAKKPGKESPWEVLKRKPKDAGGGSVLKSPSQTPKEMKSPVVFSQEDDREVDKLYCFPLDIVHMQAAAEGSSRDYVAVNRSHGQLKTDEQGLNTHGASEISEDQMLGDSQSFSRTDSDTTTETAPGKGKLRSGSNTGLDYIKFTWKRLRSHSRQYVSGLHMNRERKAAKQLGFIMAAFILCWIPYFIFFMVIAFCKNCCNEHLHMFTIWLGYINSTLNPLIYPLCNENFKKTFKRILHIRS
Dopamine D3, sequence (P35462 whole entry): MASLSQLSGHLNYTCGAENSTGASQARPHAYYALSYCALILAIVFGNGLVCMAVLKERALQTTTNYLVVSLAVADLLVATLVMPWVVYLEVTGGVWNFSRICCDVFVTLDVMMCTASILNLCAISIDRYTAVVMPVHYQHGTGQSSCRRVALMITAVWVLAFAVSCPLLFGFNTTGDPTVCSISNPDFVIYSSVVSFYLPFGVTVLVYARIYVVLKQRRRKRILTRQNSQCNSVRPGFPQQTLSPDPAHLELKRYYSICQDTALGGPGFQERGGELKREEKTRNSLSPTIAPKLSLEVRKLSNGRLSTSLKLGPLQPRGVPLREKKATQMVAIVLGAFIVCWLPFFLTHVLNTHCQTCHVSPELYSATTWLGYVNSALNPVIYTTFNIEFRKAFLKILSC

In the case of `Cc1cc2n(c1)Cc1cc(Cl)ccc1N=C2N1CCN(CC(C)(C)C(=O)O)CC1` [Example 13, 3-[4-(7-Chloro-2-methyl-5H-pyrrolo[2,1-c][1,4]benzodiazepin-11-yl)piperazin-1-yl]-2,2-dimethylpropanoic acid dihydrochloride], the Ki (Dopamine D3) is reported as over 4110 nM, the “Rebound Insomnia, Adj. Mean” value (Wistar rats; 0.03 mg/kg PO) is reported as -0.7 min and the “REM inhibition, Adj. Mean” value (Wistar rats; 0.03 mg/kg PO) is reported as 1.8 min. For the same compound, the “Cumulative NREM sleep, Adj. Mean” value (Wistar rats; 0.03 mg/kg PO) was 5.1 min, the “Cumulative Total sleep, Adj. Mean” value (Wistar rats; 0.03 mg/kg PO) was 7.3 min and the “Locomotor Activity Intensity, Adj. Mean” value (Wistar rats; 0.03 mg/kg PO) was −0.97 LMA counts per minute of EEG-defined wakefulness. For the same compound, the “Average Sleep Bout, Adj. Mean” value (Wistar rats; 0.03 mg/kg PO) was 1.1 n-fold, the “Longest Sleep Bout, Adj. Mean” value (Wistar rats; 0.03 mg/kg PO) was 1.3 n-fold and the “Rebound Insomnia, Adj. Mean” value (Wistar rats; 0.10 mg/kg PO) was -5.4 min. The “REM inhibition, Adj. Mean” value (Wistar rats; 0.10 mg/kg PO) was 1.0 min, the “Cumulative NREM sleep, Adj. Mean” value (Wistar rats; 0.10 mg/kg PO) was 5.9 min and the “Cumulative Total sleep, Adj. Mean” value (Wistar rats; 0.10 mg/kg PO) was 5.9 min. The “Locomotor Activity Intensity, Adj. Mean” value (Wistar rats; 0.10 mg/kg PO) was −0.35 LMA counts per minute of EEG-defined wakefulness, the “Average Sleep Bout, Adj. Mean” value (Wistar rats; 0.10 mg/kg PO) was 1.1 n-fold and the “Longest Sleep Bout, Adj. Mean” value (Wistar rats; 0.10 mg/kg PO) was 1.7 n-fold. For the same compound, the “Rebound Insomnia, Adj. Mean” value (Wistar rats; 0.25 mg/kg PO) was -1.9 min, the “REM inhibition, Adj. Mean” value (Wistar rats; 0.25 mg/kg PO) was 4.7 min and the “Cumulative NREM sleep, Adj. Mean” value (Wistar rats; 0.25 mg/kg PO) was 15.2 min. For the same compound, the “Cumulative Total sleep, Adj. Mean” value (Wistar rats; 0.25 mg/kg PO) was 17.7 min, the “Locomotor Activity Intensity, Adj. Mean” value (Wistar rats; 0.25 mg/kg PO) was −0.58 LMA counts per minute of EEG-defined wakefulness and the “Average Sleep Bout, Adj. Mean” value (Wistar rats; 0.25 mg/kg PO) was 1.2 n-fold. The “Longest Sleep Bout, Adj. Mean” value (Wistar rats; 0.25 mg/kg PO) was 1.7 n-fold, the “Rebound Insomnia, Adj. Mean” value (Wistar rats; 0.50 mg/kg PO) was -7.2 min and the “REM inhibition, Adj. Mean” value (Wistar rats; 0.50 mg/kg PO) was 5.8 min. For the same compound, the “Cumulative NREM sleep, Adj. Mean” value (Wistar rats; 0.50 mg/kg PO) was 22.2 min, the “Cumulative Total sleep, Adj. Mean” value (Wistar rats; 0.50 mg/kg PO) was 25.1 min and the “Locomotor Activity Intensity, Adj. Mean” value (Wistar rats; 0.50 mg/kg PO) was −0.14 LMA counts per minute of EEG-defined wakefulness. The “Average Sleep Bout, Adj. Mean” value (Wistar rats; 0.50 mg/kg PO) was 1.4 n-fold, the “Longest Sleep Bout, Adj. Mean” value (Wistar rats; 0.50 mg/kg PO) was 1.8 n-fold and the “Rebound Insomnia, Adj. Mean” value (Wistar rats; 1 mg/kg PO) was -9.7 min. For the same compound, the “REM inhibition, Adj. Mean” value (Wistar rats; 1 mg/kg PO) was 2.6 min, the “Cumulative NREM sleep, Adj. Mean” value (Wistar rats; 1 mg/kg PO) was 28.0 min and the “Cumulative Total sleep, Adj. Mean” value (Wistar rats; 1 mg/kg PO) was 30.6 min. The “Locomotor Activity Intensity, Adj. Mean” value (Wistar rats; 1 mg/kg PO) was −2.94 LMA counts per minute of EEG-defined wakefulness, the “Average Sleep Bout, Adj. Mean” value (Wistar rats; 1 mg/kg PO) was 1.6 n-fold and the “Longest Sleep Bout, Adj. Mean” value (Wistar rats; 1 mg/kg PO) was 2.5 n-fold. For the same compound, the “REM sleep inhibition (in words)” value (Wistar rats; 3 mg/kg) was “without significant”, the “cumulative NREM sleep time (in words)” value (Wistar rats; 3 mg/kg) was “significantly increase” and the “cumulative total sleep time (in words)” value (Wistar rats; 3 mg/kg) was “significantly increase”. For the same compound, the “inhibition of locomotor intensity (LMI) (in words)” value (Wistar rats; 3 mg/kg) was “without significant”, the “rebound insomnia (in words)” value (Wistar rats; 3 mg/kg) was “without significant” and the “Rebound Insomnia, Adj. Mean” value (Wistar rats; 3 mg/kg PO) was -7.8 min. The “REM inhibition, Adj. Mean” value (Wistar rats; 3 mg/kg PO) was 7.0 min, the “Cumulative NREM sleep, Adj. Mean” value (Wistar rats; 3 mg/kg PO) was 39.5 min and the “Cumulative Total sleep, Adj. Mean” value (Wistar rats; 3 mg/kg PO) was 42.3 min. The “Locomotor Activity Intensity, Adj. Mean” value (Wistar rats; 3 mg/kg PO) was −1.49 LMA counts per minute of EEG-defined wakefulness, the “Average Sleep Bout, Adj. Mean” value (Wistar rats; 3 mg/kg PO) was 1.8 n-fold and the “Longest Sleep Bout, Adj. Mean” value (Wistar rats; 3 mg/kg PO) was 2.7 n-fold. The “Rebound Insomnia, Adj. Mean” value (Wistar rats; 10 mg/kg PO) was 3.1 min, the “REM inhibition, Adj. Mean” value (Wistar rats; 10 mg/kg PO) was 2.9 min and the “Cumulative NREM sleep, Adj. Mean” value (Wistar rats; 10 mg/kg PO) was 51.8 min. The “Cumulative Total sleep, Adj. Mean” value (Wistar rats; 10 mg/kg PO) was 52.8 min, the “Locomotor Activity Intensity, Adj. Mean” value (Wistar rats; 10 mg/kg PO) was −0.11 LMA counts per minute of EEG-defined wakefulness and the “Average Sleep Bout, Adj. Mean” value (Wistar rats; 10 mg/kg PO) was 2.3 n-fold. The “Longest Sleep Bout, Adj. Mean” value (Wistar rats; 10 mg/kg PO) was 3.1 n-fold, the “Estimated efficacy dose (mg/kg), NREM accumulation = 30 min” value (Wistar rats; [2]) was 1.2 mg/kg and the “Estimated efficacy dose (mg/kg), average sleep bout (1.5-fold increase)” value (Wistar rats; [2]) was 0.77 mg/kg. For the same compound, the “Estimated efficacy dose (mg/kg), longest sleep bout (1.75-fold increase)” value (Wistar rats; [2]) was 0.21 mg/kg, the “Estimated efficacy dose (mg/kg), total sleep accumulation = 25 min” value (Wistar rats; [2]) was 0.58 mg/kg and the IC50 ([1]; IP1 accumulation, HEK293/hm H1 cells) was 53.9 ± 37 nM. The “suppression of constitutive activity (negative efficacy)” value ([1]; relative to positive control Tripelennamine 10 μM) was 126±6%.
